# Assay: RP, Waters XBridge C18, 50 × 2.1 mm, 3.5 µm, 30 °C, 0.2 mL/min, estimated dead time 0.55 min; A: water + 0.1% formic acid, pH 3; B: methanol + 0.1% formic acid, pH 3; gradient (min/%B) 0/10 4/50 17/95 25/95 25.1/10 30/10
# Conditions: stereoisomer not certain
row,SMILES,LC retention time
1,COc1cc(OC)nc(NC(=O)NS(=O)(=O)c2ncccc2C(=O)N(C)C)n1 [Nicosulfuron],7.1 min
2,CCn1cc(C(=O)O)c(=O)c2cc(F)c(N3CCNCC3)cc21 [Norfloxacin],4.4 min
3,CN(C)CC(c1ccc(O)cc1)C1(O)CCCCC1 (centres undefined) [O-desmethylvenlafaxine],4.8 min
4,CCN(CC)C(=O)SCc1ccccc1Cl [Orbencarb],13.3 min
5,CCC(CC)OC1C=C(C(=O)O)CC(N)C1NC(C)=O (centres undefined) [Oseltamivir carboxylate],5.1 min
6,CCOC(=O)C1=CC(OC(CC)CC)C(NC(C)=O)C(N)C1 (centres undefined) [Oseltamivir],7 min
7,O=C1Nc2ccc(Cl)cc2C(c2ccccc2)=NC1O (centres undefined) [Oxazepam],9 min
8,COc1ccnc(CS(=O)c2nc3ccc(OC(F)F)cc3[nH]2)c1OC (centres undefined) [Pantoprazole],6.6 min
9,CC(=O)Nc1ccc(O)cc1 [Paracetamol],2.2 min
10,O=C(O)C(F)(F)C(F)(F)C(F)(F)F [Perfluorobutyric acid],5.1 min
11,O=C(O)C(F)(F)C(F)(F)C(F)(F)C(F)(F)C(F)(F)C(F)(F)C(F)(F)C(F)(F)C(F)(F)F [Perfluorodecanoic acid],15.2 min
12,O=P(O)(O)OCCC(F)(F)C(F)(F)C(F)(F)C(F)(F)C(F)(F)C(F)(F)C(F)(F)C(F)(F)F [Perfluorodecyl phosphate],14.7 min
13,O=C(O)C(F)(F)C(F)(F)C(F)(F)C(F)(F)C(F)(F)C(F)(F)F [Perfluoroheptanoic acid],11.1 min
14,O=C(O)C(F)(F)C(F)(F)C(F)(F)C(F)(F)C(F)(F)F [Perfluorohexanoic acid],9.3 min
15,O=C(O)C(F)(F)C(F)(F)C(F)(F)C(F)(F)C(F)(F)C(F)(F)C(F)(F)C(F)(F)F [Perfluorononanoic acid],13.9 min
16,O=C(O)CNS(=O)(=O)C(F)(F)C(F)(F)C(F)(F)C(F)(F)C(F)(F)C(F)(F)C(F)(F)C(F)(F)F [Perfluorooctane sulfonamidoacetic acid],15.9 min
17,O=C(O)C(F)(F)C(F)(F)C(F)(F)C(F)(F)C(F)(F)C(F)(F)C(F)(F)F [Perfluorooctanoic acid],12.6 min
18,O=P(O)(O)OCCC(F)(F)C(F)(F)C(F)(F)C(F)(F)C(F)(F)C(F)(F)F [Perfluorooctyl phosphate],12.1 min
19,O=C(O)C(F)(F)C(F)(F)C(F)(F)C(F)(F)F [Perfluoropentanoic acid],7.3 min
20,O=C(O)C(F)(F)C(F)(F)C(F)(F)C(F)(F)C(F)(F)C(F)(F)C(F)(F)C(F)(F)C(F)(F)C(F)(F)F [Perfluoroundecanoic acid],16.3 min
21,CCOCCN(C(=O)CCl)C(=C(C)C)c1ccccc1 [Pethoxamide],11.5 min
22,COC(=O)Nc1cccc(OC(=O)Nc2cccc(C)c2)c1 [Phenmedipham],9.5 min
23,CCc1cc(C)cc(CC)c1-c1c(OC(=O)C(C)(C)C)n2n(c1=O)CCOCC2 [Pinoxaden],13.7 min
24,Cc1nc(N(C)C)nc(OC(=O)N(C)C)c1C [Pirimicarb],5 min

row,SMILES,LC retention time
1,CCC(C)C(=O)OC1CC(O)C=C2C=CC(C)C(CCC(O)CC(O)CC(=O)O)C21 (centres undefined) [Pravastatin],9.2 min
2,CCCN(CCOc1c(Cl)cc(Cl)cc1Cl)C(=O)n1ccnc1 [Prochloraz],12.2 min
3,COc1nc(NC(C)C)nc(NC(C)C)n1 [Prometon],6.7 min
4,CSc1nc(NC(C)C)nc(NC(C)C)n1 [Prometryn],8.5 min
5,CC(C)N(C(=O)CCl)c1ccccc1 [Propachlor],8.6 min
6,CC(C)=NOCCOC(=O)C(C)Oc1ccc(Oc2cnc3cc(Cl)ccc3n2)cc1 (centres undefined) [Propaquizafop],15 min
7,CC(C)Nc1nc(Cl)nc(NC(C)C)n1 [Propazine],9.9 min
8,CCCC1COC(Cn2cncn2)(c2ccc(Cl)cc2Cl)O1 (centres undefined) [Propiconazole],13.1 min
9,CCCN(CCC)C(=O)SCc1ccccc1 [Prosulfocarb],14.4 min
10,CC1=NNC(=O)N(N=Cc2cccnc2)C1 [Pymetrozine],1.5 min
11,COC(=O)N(OC)c1ccccc1COc1ccn(-c2ccc(Cl)cc2)n1 [Pyraclostrobin],13.4 min
12,Cc1cc(C)nc(Nc2ccccc2)n1 [Pyrimethanil],7.6 min
13,CCS(=O)(=O)c1cccnc1S(=O)(=O)NC(=O)Nc1nc(OC)cc(OC)n1 [Rimsulfuron],7.9 min
14,O=C(O)C(c1ccccc1)C1CCCCN1 (centres undefined) [Ritalinic acid],4.7 min
15,CCNc1nc(Cl)nc(NCC)n1 [Simazine],6.9 min
16,CCCN(CC)CC1COC2(CCC(C(C)(C)C)CC2)O1 (centres undefined) [Spiroxamine],10.1 min
17,CS(=O)(=O)c1ccc(C(=O)C2C(=O)CCCC2=O)c(Cl)c1 [Sulcotrione],6.8 min
18,CC(C)(C)C(O)(CCc1ccc(Cl)cc1)Cn1cncn1 (centres undefined) [Tebuconazole],12.8 min
19,CCc1ccc(C(=O)NN(C(=O)c2cc(C)cc(C)c2)C(C)(C)C)cc1 [Tebufenozide],12.4 min
20,CC(C)N(Cc1ccccc1)C(=O)C(C)(C)C [Tebutam],11.7 min
21,O=C(NC(=O)c1c(F)cccc1F)Nc1cc(Cl)c(F)c(Cl)c1F [Teflubenzuron],16.1 min
22,CCNc1nc(NC(C)(C)C)nc(SC)n1 [Terbutryn],8.5 min
23,CCNc1nc(Cl)nc(NC(C)(C)C)n1 [Terbutylazine],10.1 min
24,NC(=O)N=C1SCCN1Cc1ccc(Cl)nc1 [Thiacloprid-amide],4.6 min

# Now from value to compound:
row,LC retention time,SMILES
1,8 min,CC12C=CC(=O)C=C1CCC1C2C(O)CC2(C)C1CCC2(O)C(=O)CO (centres undefined) [Prednisolone]
2,5.4 min,CCC1(c2ccccc2)C(=O)NCNC1=O [Primidone]
3,5.9 min,CC(C)N(C(=O)CS(=O)(=O)O)c1ccccc1 [Propachlor ESA]
4,5.6 min,CC(C)N(C(=O)C(=O)O)c1ccccc1 [Propachlor OXA]
5,2.4 min,CCCOC(=O)NCCCN(C)C [Propamocarb]
6,6.6 min,CC(C)NCC(O)COc1cccc2ccccc12 (centres undefined) [Propranolol]
7,3.4 min,Cc1cc(=O)[nH]c(C(C)C)n1 [Pyrimidinol]
8,2.4 min,CNC(=C[N+](=O)[O-])NCCSCc1ccc(C[N+](C)(C)[O-])o1 [Ranitidine N-oxide]
9,0.8 min,CNC(=C[N+](=O)[O-])NCCS(=O)Cc1ccc(CN(C)C)o1 (centres undefined) [Ranitidine-S-oxide]
10,1.9 min,CNC(=C[N+](=O)[O-])NCCSCc1ccc(CN(C)C)o1 [Ranitidine]
11,8.3 min,COC(=O)C1C2CC3c4[nH]c5cc(OC)ccc5c4CCN3CC2CC(OC(=O)c2cc(OC)c(OC)c(OC)c2)C1OC (centres undefined) [Reserpine]
12,13.6 min,CC(C)c1nc(CN(C)C(=O)NC(C(=O)NC(Cc2ccccc2)CC(O)C(Cc2ccccc2)NC(=O)OCc2cncs2)C(C)C)cs1 (centres undefined) [Ritonavir]
13,9.2 min,CC(C)c1nc(N(C)S(C)(=O)=O)nc(-c2ccc(F)cc2)c1C=CC(O)CC(O)CC(=O)O (centres undefined) [Rosuvastatin]
14,10.1 min,CCC1OC(=O)C(C)C(OC2CC(C)(OC)C(O)C(C)O2)C(C)C(OC2OC(C)CC(N(C)C)C2O)C(C)(O)CC(C)C(=NOCOCCOC)C(C)C(O)C1(C)O (centres undefined) [Roxithromycin]
15,2.5 min,O=C1NS(=O)(=O)c2ccccc21 [Saccharin]
16,9.8 min,CCNc1nc(Cl)nc(NC(C)CC)n1 (centres undefined) [Sebuthylazine]
17,6.7 min,CCNc1nc(NC(C)CC)nc(OC)n1 (centres undefined) [Secbumeton]
18,3.5 min,CCNc1nc(NCC)[nH]c(=O)n1 [Simazine-2-hydroxy]

row,LC retention time,SMILES
1,4.9 min,CCNc1nc(NCC)nc(OC)n1 [Simeton]
2,16 min,CCC(C)(C)C(=O)OC1CC(C)C=C2C=CC(C)C(CCC3CC(O)CC(=O)O3)C21 (centres undefined) [Simvastatin]
3,5.2 min,NC(CC(=O)N1CCn2c(nnc2C(F)(F)F)C1)Cc1cc(F)c(F)cc1F (centres undefined) [Sitagliptin]
4,1.6 min,CC(C)NCC(O)c1ccc(NS(C)(=O)=O)cc1 (centres undefined) [Sotalol]
5,10.2 min,CC(=O)SC1CC2=CC(=O)CCC2(C)C2CCC3(C)C(CCC34CCC(=O)O4)C12 (centres undefined) [Spironolactone]
6,4.4 min,OCC1OC(OC2(CCl)OC(CCl)C(O)C2O)C(O)C(O)C1Cl (centres undefined) [Sucralose]
7,2.2 min,Nc1ccc(S(=O)(=O)Nc2ncccn2)cc1 [Sulfadiazine]
8,5.7 min,COc1cc(NS(=O)(=O)c2ccc(N)cc2)nc(OC)n1 [Sulfadimethoxine]
9,3.9 min,Cc1cc(C)nc(NS(=O)(=O)c2ccc(N)cc2)n1 [Sulfamethazine]
10,4.6 min,Cc1cc(NS(=O)(=O)c2ccc(N)cc2)no1 [Sulfamethoxazole]
11,0.9 min,Nc1ccc(S(=O)(=O)O)cc1 [Sulfanilic acid]
12,2.9 min,Nc1ccc(S(=O)(=O)Nc2ccccn2)cc1 [Sulfapyridine]
13,2.8 min,Nc1ccc(S(=O)(=O)Nc2nccs2)cc1 [Sulfathiazole]
14,9.2 min,CCCc1nc2c(C)cc(-c3nc4ccccc4n3C)cc2n1Cc1ccc(-c2ccccc2C(=O)O)cc1 [Telmisartan]
15,6.7 min,CCNc1nc(NC(C)(C)C)nc(OC)n1 [Terbumeton]
16,5.6 min,CCNc1nc(NC(C)(C)C)[nH]c(=O)n1 [Terbutylazine-2-hydroxy]
17,2.9 min,CC(C)(C)Nc1nc(N)[nH]c(=O)n1 [Terbutylazine-desethyl-2-hydroxy]
18,7.6 min,CC(C)(C)Nc1nc(N)nc(Cl)n1 [Terbutylazine-desethyl]
